Assay results from PubChem BioAssay AID1259407 (Chemical Carcinogenesis Research Information System (CCRIS), 2018).
Active and inactive are the calls of the source. No rule for the calls is given here.

System: CCRIS mutagenicity, Ames/micronucleus/aberration tests
Assay: CCRIS mutagenicity studies

For `CC(=O)Nc1ccc(O)cc1`, the mutagenic call (End Point: IN VITRO MICRONUCLEUS, Test System: CHL/IU CELLS, Metabolic Activation: NONE) was “active; positive”, the mutagenic call (End Point: IN VITRO MICRONUCLEUS, Test System: RAT KIDNEY FIBROBLAST NRK-49F, Metabolic Activation: NONE) was “active; positive” and the mutagenic call (Test System: AMES SALMONELLA TYPHIMURIUM, Strain/Indicator: TA97, Metabolic Activation: NONE, Method: STANDARD PLATE) was “inactive; negative”. The mutagenic call (Test System: AMES SALMONELLA TYPHIMURIUM, Strain/Indicator: TA97, Metabolic Activation: RAT, LIVER, S-9, AROCLOR 1254, Method: STANDARD PLATE) was “inactive; negative”, the mutagenic call (Test System: AMES SALMONELLA TYPHIMURIUM, Strain/Indicator: TA98, Metabolic Activation: GUINEA PIG, LIVER, S-9, PCB, Method: PREINCUBATION) was “inactive; negative” and the mutagenic call (Test System: AMES SALMONELLA TYPHIMURIUM, Strain/Indicator: TA98, Metabolic Activation: HAMSTER, LIVER, S-9, AROCLOR 1254 (10%), Method: PREINCUBATION) was “inactive; negative”. For the same compound, the mutagenic call (Test System: AMES SALMONELLA TYPHIMURIUM, Strain/Indicator: TA98, Metabolic Activation: HAMSTER, LIVER, S-9, AROCLOR 1254, Method: STANDARD PLATE) was “inactive; negative”, the mutagenic call (Test System: AMES SALMONELLA TYPHIMURIUM, Strain/Indicator: TA98, Metabolic Activation: HAMSTER, LIVER, S-9, PCB, Method: PREINCUBATION) was “inactive; negative” and the mutagenic call (Test System: AMES SALMONELLA TYPHIMURIUM, Strain/Indicator: TA98, Metabolic Activation: MOUSE, LIVER, S-9, AROCLOR 1254, Method: STANDARD PLATE) was “inactive; negative”. For the same compound, the mutagenic call (Test System: AMES SALMONELLA TYPHIMURIUM, Strain/Indicator: TA98, Metabolic Activation: MOUSE, LIVER, S-9, PCB, Method: PREINCUBATION) was “inactive; negative”, the mutagenic call (Test System: AMES SALMONELLA TYPHIMURIUM, Strain/Indicator: TA98, Metabolic Activation: NONE, Method: PREINCUBATION) was “inactive; negative” and the mutagenic call (Test System: AMES SALMONELLA TYPHIMURIUM, Strain/Indicator: TA98, Metabolic Activation: NONE, Method: STANDARD PLATE) was “inactive; negative”. For the same compound, the mutagenic call (Test System: AMES SALMONELLA TYPHIMURIUM, Strain/Indicator: TA98, Metabolic Activation: RAT, LIVER, S-9, AROCLOR 1254 (10%), Method: PREINCUBATION) was “inactive; negative”, the mutagenic call (Test System: AMES SALMONELLA TYPHIMURIUM, Strain/Indicator: TA98, Metabolic Activation: RAT, LIVER, S-9, AROCLOR 1254, Method: STANDARD PLATE) was “inactive; negative” and the mutagenic call (Test System: AMES SALMONELLA TYPHIMURIUM, Strain/Indicator: TA98, Metabolic Activation: RAT, LIVER, S-9, ETHANOL, Method: STANDARD PLATE) was “inactive; negative”. For the same compound, the mutagenic call (Test System: AMES SALMONELLA TYPHIMURIUM, Strain/Indicator: TA98, Metabolic Activation: RAT, LIVER, S-9, PCB, Method: PREINCUBATION) was “inactive; negative”, the mutagenic call (Test System: AMES SALMONELLA TYPHIMURIUM, Strain/Indicator: TA98, Metabolic Activation: RAT, LIVER, S-9, PYRAZOLE, Method: STANDARD PLATE) was “inactive; negative” and the mutagenic call (Test System: AMES SALMONELLA TYPHIMURIUM, Strain/Indicator: TA100, Metabolic Activation: GUINEA PIG, LIVER, S-9, PCB, Method: PREINCUBATION) was “inactive; negative”. The mutagenic call (Test System: AMES SALMONELLA TYPHIMURIUM, Strain/Indicator: TA100, Metabolic Activation: HAMSTER, LIVER, S-9, AROCLOR 1254 (10%), Method: PREINCUBATION) was “inactive; negative”, the mutagenic call (Test System: AMES SALMONELLA TYPHIMURIUM, Strain/Indicator: TA100, Metabolic Activation: HAMSTER, LIVER, S-9, AROCLOR 1254, Method: STANDARD PLATE) was “inactive; negative” and the mutagenic call (Test System: AMES SALMONELLA TYPHIMURIUM, Strain/Indicator: TA100, Metabolic Activation: HAMSTER, LIVER, S-9, PCB, Method: PREINCUBATION) was “active; positive”. For the same compound, the mutagenic call (Test System: AMES SALMONELLA TYPHIMURIUM, Strain/Indicator: TA100, Metabolic Activation: MOUSE, LIVER, S-9, AROCLOR 1254, Method: STANDARD PLATE) was “inactive; negative”, the mutagenic call (Test System: AMES SALMONELLA TYPHIMURIUM, Strain/Indicator: TA100, Metabolic Activation: MOUSE, LIVER, S-9, PCB, Method: PREINCUBATION) was “inactive; negative” and the mutagenic call (Test System: AMES SALMONELLA TYPHIMURIUM, Strain/Indicator: TA100, Metabolic Activation: NONE, Method: PREINCUBATION) was “inactive; negative”. The mutagenic call (Test System: AMES SALMONELLA TYPHIMURIUM, Strain/Indicator: TA100, Metabolic Activation: NONE, Method: STANDARD PLATE) was “inactive; negative”, the mutagenic call (Test System: AMES SALMONELLA TYPHIMURIUM, Strain/Indicator: TA100, Metabolic Activation: RAT, LIVER, S-9, AROCLOR 1254 (10%), Method: PREINCUBATION) was “inactive; negative” and the mutagenic call (Test System: AMES SALMONELLA TYPHIMURIUM, Strain/Indicator: TA100, Metabolic Activation: RAT, LIVER, S-9, AROCLOR 1254, Method: STANDARD PLATE) was “inactive; negative”. The mutagenic call (Test System: AMES SALMONELLA TYPHIMURIUM, Strain/Indicator: TA100, Metabolic Activation: RAT, LIVER, S-9, ETHANOL, Method: STANDARD PLATE) was “inactive; negative”, the mutagenic call (Test System: AMES SALMONELLA TYPHIMURIUM, Strain/Indicator: TA100, Metabolic Activation: RAT, LIVER, S-9, PCB, Method: PREINCUBATION) was “inactive; negative” and the mutagenic call (Test System: AMES SALMONELLA TYPHIMURIUM, Strain/Indicator: TA100, Metabolic Activation: RAT, LIVER, S-9, PYRAZOLE, Method: STANDARD PLATE) was “inactive; negative”. The mutagenic call (Test System: AMES SALMONELLA TYPHIMURIUM, Strain/Indicator: TA102, Metabolic Activation: RAT, LIVER, S-9, ETHANOL, Method: STANDARD PLATE) was “inactive; negative”, the mutagenic call (Test System: AMES SALMONELLA TYPHIMURIUM, Strain/Indicator: TA102, Metabolic Activation: RAT, LIVER, S-9, PYRAZOLE, Method: STANDARD PLATE) was “inactive; negative” and the mutagenic call (Test System: AMES SALMONELLA TYPHIMURIUM, Strain/Indicator: TA1535, Metabolic Activation: HAMSTER, LIVER, S-9, AROCLOR 1254 (10%), Method: PREINCUBATION) was “inactive; negative”. For the same compound, the mutagenic call (Test System: AMES SALMONELLA TYPHIMURIUM, Strain/Indicator: TA1535, Metabolic Activation: HAMSTER, LIVER, S-9, AROCLOR 1254, Method: STANDARD PLATE) was “inactive; negative”, the mutagenic call (Test System: AMES SALMONELLA TYPHIMURIUM, Strain/Indicator: TA1535, Metabolic Activation: MOUSE, LIVER, S-9, AROCLOR 1254, Method: STANDARD PLATE) was “inactive; negative” and the mutagenic call (Test System: AMES SALMONELLA TYPHIMURIUM, Strain/Indicator: TA1535, Metabolic Activation: NONE, Method: PREINCUBATION) was “inactive; negative”. The mutagenic call (Test System: AMES SALMONELLA TYPHIMURIUM, Strain/Indicator: TA1535, Metabolic Activation: NONE, Method: STANDARD PLATE) was “inactive; negative”, the mutagenic call (Test System: AMES SALMONELLA TYPHIMURIUM, Strain/Indicator: TA1535, Metabolic Activation: RAT, LIVER, S-9, AROCLOR 1254 (10%), Method: PREINCUBATION) was “inactive; negative” and the mutagenic call (Test System: AMES SALMONELLA TYPHIMURIUM, Strain/Indicator: TA1535, Metabolic Activation: RAT, LIVER, S-9, AROCLOR 1254, Method: STANDARD PLATE) was “inactive; negative”. For the same compound, the mutagenic call (Test System: AMES SALMONELLA TYPHIMURIUM, Strain/Indicator: TA1535, Metabolic Activation: RAT, LIVER, S-9, PYRAZOLE, Method: STANDARD PLATE) was “inactive; negative”, the mutagenic call (Test System: AMES SALMONELLA TYPHIMURIUM, Strain/Indicator: TA1537, Metabolic Activation: HAMSTER, LIVER, S-9, AROCLOR 1254 (10%), Method: PREINCUBATION) was “inactive; negative” and the mutagenic call (Test System: AMES SALMONELLA TYPHIMURIUM, Strain/Indicator: TA1537, Metabolic Activation: HAMSTER, LIVER, S-9, AROCLOR 1254, Method: STANDARD PLATE) was “inactive; negative”. The mutagenic call (Test System: AMES SALMONELLA TYPHIMURIUM, Strain/Indicator: TA1537, Metabolic Activation: MOUSE, LIVER, S-9, AROCLOR 1254, Method: STANDARD PLATE) was “inactive; negative”, the mutagenic call (Test System: AMES SALMONELLA TYPHIMURIUM, Strain/Indicator: TA1537, Metabolic Activation: NONE, Method: PREINCUBATION) was “inactive; negative” and the mutagenic call (Test System: AMES SALMONELLA TYPHIMURIUM, Strain/Indicator: TA1537, Metabolic Activation: NONE, Method: STANDARD PLATE) was “inactive; negative”. The mutagenic call (Test System: AMES SALMONELLA TYPHIMURIUM, Strain/Indicator: TA1537, Metabolic Activation: RAT, LIVER, S-9, AROCLOR 1254 (10%), Method: PREINCUBATION) was “inactive; negative”, the mutagenic call (Test System: AMES SALMONELLA TYPHIMURIUM, Strain/Indicator: TA1537, Metabolic Activation: RAT, LIVER, S-9, AROCLOR 1254, Method: STANDARD PLATE) was “inactive; negative” and the mutagenic call (Test System: AMES SALMONELLA TYPHIMURIUM, Strain/Indicator: TA1537, Metabolic Activation: RAT, LIVER, S-9, PYRAZOLE, Method: STANDARD PLATE) was “inactive; negative”. The mutagenic call (Test System: AMES SALMONELLA TYPHIMURIUM, Strain/Indicator: TA1538, Metabolic Activation: HAMSTER, LIVER, S-9, AROCLOR 1254, Method: STANDARD PLATE) was “inactive; negative”, the mutagenic call (Test System: AMES SALMONELLA TYPHIMURIUM, Strain/Indicator: TA1538, Metabolic Activation: MOUSE, LIVER, S-9, AROCLOR 1254, Method: STANDARD PLATE) was “inactive; negative” and the mutagenic call (Test System: AMES SALMONELLA TYPHIMURIUM, Strain/Indicator: TA1538, Metabolic Activation: NONE, Method: STANDARD PLATE) was “inactive; negative”. For the same compound, the mutagenic call (Test System: AMES SALMONELLA TYPHIMURIUM, Strain/Indicator: TA1538, Metabolic Activation: RAT, LIVER, S-9, AROCLOR 1254, Method: STANDARD PLATE) was “inactive; negative” and the mutagenic call (Test System: TEST SALMONELLA TYPHIMURIUM, Strain/Indicator: TA1537, Metabolic Activation: RAT, LIVER, S-9, AROCLOR 1254, Method: STANDARD PLATE) was “inactive; negative”.
